According to patent US20030055052A1, “FAP-activated anti-tumor compounds” (priority 2000, published 2003):

Target: T1, FAP (Homo sapiens, UniProt Q12884)
T1 construct: expressed in transfected cells; host or cells: human embryonic kidney 293 cells stably transfected with pFAP.38; cell extract used
T1 sequence (Q12884 1-760): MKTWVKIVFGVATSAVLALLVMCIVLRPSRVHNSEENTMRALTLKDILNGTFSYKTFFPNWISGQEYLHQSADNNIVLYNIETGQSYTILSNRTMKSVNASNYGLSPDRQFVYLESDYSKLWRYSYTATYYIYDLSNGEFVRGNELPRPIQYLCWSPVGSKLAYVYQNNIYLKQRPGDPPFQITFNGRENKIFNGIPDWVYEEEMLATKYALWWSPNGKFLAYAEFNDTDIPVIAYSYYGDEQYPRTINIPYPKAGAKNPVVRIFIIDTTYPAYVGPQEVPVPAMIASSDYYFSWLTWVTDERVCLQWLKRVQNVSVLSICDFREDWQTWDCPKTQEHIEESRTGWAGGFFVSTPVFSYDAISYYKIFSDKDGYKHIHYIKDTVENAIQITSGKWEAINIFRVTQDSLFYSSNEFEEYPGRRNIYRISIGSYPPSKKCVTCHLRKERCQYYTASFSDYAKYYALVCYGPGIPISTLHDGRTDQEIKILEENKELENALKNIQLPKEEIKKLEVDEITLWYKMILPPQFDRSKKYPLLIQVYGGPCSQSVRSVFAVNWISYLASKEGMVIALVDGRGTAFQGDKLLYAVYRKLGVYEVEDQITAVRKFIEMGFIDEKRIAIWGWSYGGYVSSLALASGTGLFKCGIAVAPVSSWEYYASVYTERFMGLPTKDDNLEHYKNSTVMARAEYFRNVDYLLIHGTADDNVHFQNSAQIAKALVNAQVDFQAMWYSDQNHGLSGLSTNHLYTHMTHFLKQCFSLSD
Assay: Assay for cleavage of AMCA substrates by FAP
Format: biochemical
Settings: 1 ng FAP enzyme (FAP-transfected 293 cell extract), 20 μl 2.5 mM substrate, room temperature, 1 hour; control 293 extract subtracted
Protocol: Assay for Cleavage of AMCA Substrates by FAP:
Cell extract from 293 cells stably transfected with FAP prepared as described (see Park, et al., Fibroblast Activation Protein, a Dual Specificity Serine Protease expressed in human tumor stromal fibroblasts. (1999) J. Biol. Chem. 36505-12.). A similar extract was also prepared from parental 293 control cells without FAP. The FAP concentration in the FAP-transfected cell extract was estimated by immunoassay and 1 ng enzyme (diluted in buffer A) was used per assay. FAP-negative 293 control cell extract was used at the same dilution (also in buffer A) as a negative control. Substrate was initially dissolved in dimethylformamide at a concentration of 200 mM and diluted in buffer A to a final concentration of 2.5 mM. A few substrates were not soluble at this concentration and had to be diluted further.
10 μl 10% DMSO in buffer A
70 ll diluted FAP cell extract containing 1 ng FAP enzyme (OR control 293 cell extract without FAP)
Mix, incubate at room temperature for 1 hour, and measure fluorescence in Fluorostar fluorimeter at the following wavelengths:
AMCA conjugates: Excitation: 390 nm, Emission: 440 nm.
The fluorescence measured in the samples treated with control 293 control cell extracts without FAP is subtracted from the values measured in the samples treated with 1 ng FAP enzyme.

Substance	Cleavage	Turnover
Z-Imi-Ala-Gly-Pro-AMCA	0.61 µM	0.12%
Z-Thz-Ala-Gly-Pro-AMCA-OH	1.11 µM	0.22%
